# Results published in article PMC9147192, “Small Molecule Arranged Thermal Proximity Coaggregation (smarTPCA)—A Novel Approach to Characterize Protein–Protein Interactions in Living Cells by Similar Isothermal Dose–Responses” (International Journal of Molecular Sciences, 2022).
# pEC50: −log10 of the molar value.
# Target: T1, PFAS (Homo sapiens, UniProt O15067)
# T1 construct: endogenous in cells; host or cells: HL-60 (ATCC CCL-240)
# T1 sequence (O15067 1-1338): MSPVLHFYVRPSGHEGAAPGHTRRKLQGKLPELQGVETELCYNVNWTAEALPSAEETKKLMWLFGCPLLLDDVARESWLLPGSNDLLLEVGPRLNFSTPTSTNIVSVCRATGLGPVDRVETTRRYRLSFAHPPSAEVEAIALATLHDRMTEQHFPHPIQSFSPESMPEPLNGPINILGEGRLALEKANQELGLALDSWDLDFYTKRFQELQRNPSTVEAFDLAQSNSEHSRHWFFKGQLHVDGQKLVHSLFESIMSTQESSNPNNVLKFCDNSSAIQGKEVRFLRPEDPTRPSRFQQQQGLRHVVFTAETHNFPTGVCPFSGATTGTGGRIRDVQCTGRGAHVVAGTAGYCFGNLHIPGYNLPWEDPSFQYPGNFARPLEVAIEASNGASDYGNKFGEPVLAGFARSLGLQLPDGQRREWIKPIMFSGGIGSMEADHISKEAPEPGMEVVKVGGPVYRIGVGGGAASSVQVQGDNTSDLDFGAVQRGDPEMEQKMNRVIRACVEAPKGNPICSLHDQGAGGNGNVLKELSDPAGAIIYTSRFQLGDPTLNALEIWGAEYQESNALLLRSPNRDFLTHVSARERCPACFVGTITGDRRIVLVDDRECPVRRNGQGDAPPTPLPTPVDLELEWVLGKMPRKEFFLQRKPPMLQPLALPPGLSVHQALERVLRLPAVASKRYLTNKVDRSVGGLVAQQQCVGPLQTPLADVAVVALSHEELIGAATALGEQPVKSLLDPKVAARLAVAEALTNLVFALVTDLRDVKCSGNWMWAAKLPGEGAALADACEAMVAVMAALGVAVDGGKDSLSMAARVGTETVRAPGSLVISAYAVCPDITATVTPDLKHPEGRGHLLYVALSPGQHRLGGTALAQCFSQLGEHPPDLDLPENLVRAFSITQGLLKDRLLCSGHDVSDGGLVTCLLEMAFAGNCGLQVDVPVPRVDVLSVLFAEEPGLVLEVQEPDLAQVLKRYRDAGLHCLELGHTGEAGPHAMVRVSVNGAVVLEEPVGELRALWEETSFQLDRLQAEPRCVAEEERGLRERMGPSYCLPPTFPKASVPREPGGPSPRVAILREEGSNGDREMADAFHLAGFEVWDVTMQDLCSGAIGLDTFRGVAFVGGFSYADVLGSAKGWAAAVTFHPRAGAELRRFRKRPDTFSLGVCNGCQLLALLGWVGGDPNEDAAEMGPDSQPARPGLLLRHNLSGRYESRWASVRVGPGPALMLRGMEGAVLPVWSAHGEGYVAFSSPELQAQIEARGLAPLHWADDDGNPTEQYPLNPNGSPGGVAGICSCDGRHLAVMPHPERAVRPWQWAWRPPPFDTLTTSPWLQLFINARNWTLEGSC
# Assay: TPP-CCR in living HL-60 cells
# Assay type: cell-based
# [1] = living HL-60 cells, […] °C, TMT-MS
compound,measurement,setting,value
Cc1cnc(Nc2ccc(F)cc2Cl)nc1-c1c[nH]c(C(=O)N[C@H](CO)c2cccc(Cl)c2)c1 [ERK 11e],Hill slope,"TPP-CCR, living cells, PFAS",0.30
same,pEC50,[1],5.93
same,Hill slope (PFAS),[1],0.30
